In BindingDB's records for doi:10.1016/s0960-894x(99)00425-4 (Merck Research Laboratorie, 1999):

What follows are compounds tested against Beta-lactamase CcrA (Bacteroides fragilis) (assay: Inhibitory activity against CCRA (Bacteroides fragilis) metallo-beta-lactamase).
Compound `C[C@@H](NC(=O)c1ccccc1)C(=O)SCC(=O)O` [(R)-2-(2-benzamidopropanoylthio)acetic acid] has an IC50 greater than 1000 µM.
With `CC(=O)N[C@H](C)C(=O)S[C@H](Cc1ccc(-c2ccccc2)cc1)C(=O)O` [(R)-2-((R)-2-Acetylamino-propionylsulfanyl)-3-biphenyl-4-yl-propionic acid] the IC50 was 1000 µM.
In the case of `CC(=O)N[C@H](C)C(=O)S[C@H](Cc1ccccc1)C(=O)O` [(R)-2-((R)-2-Acetylamino-propionylsulfanyl)-3-phenyl-propionic acid], the IC50 is reported as greater than 1000 µM.
`C=CCOC(=O)N[C@H](C)C(=O)S[C@H](Cc1ccc2oc3ccccc3c2c1)C(=O)O` [(R)-2-((R)-2-Allyloxycarbonylamino-propionylsulfanyl)-3-dibenzofuran-2-yl-propionic acid] showed an IC50 greater than 1500 µM.
Work on `C[C@@H](NC(=O)c1ccccc1)C(=O)S[C@H](Cc1ccc(-c2ccccc2)cc1)C(=O)O` [(R)-2-((R)-2-Benzoylamino-propionylsulfanyl)-3-biphenyl-4-yl-propionic acid] yielded an IC50 of 1000 µM.
For `C[C@@H](NC(=O)c1ccccc1)C(=O)S[C@H](Cc1ccc2oc3ccccc3c2c1)C(=O)O` [(R)-2-((R)-2-Benzoylamino-propionylsulfanyl)-3-dibenzofuran-2-yl-propionic acid], the IC50 was 680 µM.
Work on `CC(=O)S[C@H](Cc1ccc(-c2ccccc2)cc1)C(=O)O` [(R)-2-Acetylsulfanyl-3-biphenyl-4-yl-propionic acid] yielded an IC50 of 750 µM.
Work on `CC(=O)S[C@H](Cc1ccc2oc3ccccc3c2c1)C(=O)O` [(R)-2-Acetylsulfanyl-3-dibenzofuran-2-yl-propionic acid] yielded an IC50 greater than 500 µM.
`CC(=O)S[C@H](Cc1ccccc1)C(=O)O` [(R)-2-Acetylsulfanyl-3-phenyl-propionic acid] gave an IC50 greater than 1000 µM.
`O=C(S[C@H](Cc1ccccc1)C(=O)O)c1ccccc1` [(R)-2-Benzoylsulfanyl-3-phenyl-propionic acid] gave an IC50 greater than 1000 µM.
In the case of `CC(C)C(=O)N[C@H](C)C(=O)S[C@H](Cc1ccc(-c2ccccc2)cc1)C(=O)O` [(R)-3-Biphenyl-4-yl-2-((R)-2-isobutyrylamino-propionylsulfanyl)-propionic acid], the IC50 is reported as greater than 1500 µM.
`C[C@@H](NC(=O)Cc1ccccc1)C(=O)S[C@H](Cc1ccc(-c2ccccc2)cc1)C(=O)O` [(R)-3-Biphenyl-4-yl-2-((R)-2-phenylacetylamino-propionylsulfanyl)-propionic acid] was tested, and the IC50 was greater than 1500 µM.
Work on `CCC(=O)N[C@H](C)C(=O)S[C@H](Cc1ccc(-c2ccccc2)cc1)C(=O)O` [(R)-3-Biphenyl-4-yl-2-((R)-2-propionylamino-propionylsulfanyl)-propionic acid] yielded an IC50 greater than 1500 µM.
For `C[C@@H](NC(=O)Cc1cccc2ccccc12)C(=O)S[C@H](Cc1ccc(-c2ccccc2)cc1)C(=O)O` [(R)-3-Biphenyl-4-yl-2-[(R)-2-(2-naphthalen-1-yl-acetylamino)-propionylsulfanyl]-propionic acid], the IC50 was greater than 1500 µM.
With `C[C@@H](NC(=O)COc1ccccc1)C(=O)S[C@H](Cc1ccc(-c2ccccc2)cc1)C(=O)O` [(R)-3-Biphenyl-4-yl-2-[(R)-2-(2-phenoxy-acetylamino)-propionylsulfanyl]-propionic acid] the IC50 was 930 µM.
With `O=C(O)[C@H](S)Cc1ccc(-c2ccccc2)cc1` [(R)-3-Biphenyl-4-yl-2-mercapto-propionic acid] the IC50 was 750 µM.
`O=C(O)[C@H](S)Cc1ccc2oc3ccccc3c2c1` [(R)-3-Dibenzofuran-2-yl-2-mercapto-propionic acid] was tested, and the IC50 was 9.9 µM.
Compound `C[C@@H](NC(=O)CCC(=O)O)C(=O)S[C@H](Cc1ccc(-c2ccccc2)cc1)C(=O)O` [N-[(R)-1-((R)-2-Biphenyl-4-yl-1-carboxy-ethylsulfanylcarbonyl)-ethyl]-succinamic acid] has an IC50 greater than 1500 µM.
